Test system: σ1R
Test: NHP PET/MR imaging with kinetic modelling, baseline and self-blocking
Type: in vivo
Conditions: for VT, One tissue compartment model [1TCM] / VT, Two tissue compartment model [2TCM] / VT, Logan graphical method [T* = 40 min]: male NHP brain
Description: Next, we conducted PET/MR imaging studies using [^11C]CNY‐01 in non‐human primates (NHP) to evaluate its safety and translational potential in large animals further. A 90‐minute dynamic PET scan with [^11C]CNY‐01 focusing on the head of a male rhesus monkey. We performed a full kinetic analysis with one‐ and two‐tissue compartment models (1TCM and 2TCM), as well as logan graphical analysis (LGA), using metabolite‐corrected arterial input function (AIF), similar to previous studies,^[ [44], [45] ^] to determine which model best suit kinetics of [^11C]CNY‐01. In most brain regions, 2TCM provided a better fit than 1TCM, as indicated by the Akaike information criterion (AIC) and model selection criterion (MSC) (Table 1). […] To test whether non‐parametric graphical approaches can be used for [^11C]CNY‐01, we performed LGA with an assumption of steady‐state time (T*) of 40 mins (Table 1). […] For voxel‐wise estimation of VT across the whole brain, we then used LGA (Figure 4A).
We also performed a self‐blocking scan for [^11C]CNY‐01, administering 0.5 mg kg^−1 of unlabeled CNY‐01 10 min before the radiotracer. The metabolism of the radiotracer in the blocking scan was similar to that of the baseline (Figure S6, Supporting Information). The radioactivity concentration was lower in arterial blood samples in the blocking scan compared to the baseline, while brain uptake was higher in the blocking scan (Figure S6, Supporting Information). […] The variation of the radiotracer plasma protein binding (fp) between baseline and blocking scan may explain our observation in a way similar to that of the previous study.^[ [46] ^] Nonetheless, due to this study's lack of fp data, the exact explanation for our observation remains to be determined further.
The PET/MR imaging protocol in non‐human primates (NHP) followed our previous work.^[ [55], [56] ^] A male rhesus macaque (8.55 kg) was anesthetized with an intramuscular injection of xylazine (0.5–2.0 mg kg^−1) and ketamine (10 mg kg^−1), followed by endotracheal intubation. V‐ and A‐lines were inserted, and anesthesia was maintained using isoflurane. [^11C] CNY‐01 was administered after antecubital catheterization, with an arterial line prepared for radiometabolite analysis. In the self‐blocking scan, the same animal (6.80 kg) was scanned with a 10‐min pre‐treatment of 0.5 mg kg^−1 unlabeled CNY‐01. PET/MR imaging data were acquired using a Siemens TIM‐Trio scanner (3T) equipped with a Siemens BrainPET insert module and an in‐house‐built 8‐channel head coil. The dynamic scan began, followed by administration of [^11C] CNY‐01 (5.1 mCi). The list mode data were reconstructed using the 3D ordinary Poisson expectation‐maximization algorithm (16 subsets and 6 iterations) with detector efficiency, decay, dead time, random coincidences, scatter, and attenuation corrections with gradually increasing time frams. All images were reconstructed into 153 slices with 256 × 256 pixels and 1.25‐mm isotropic voxel size. High‐resolution structural MRI scans were acquired by using a multi‐echo magnetization‐prepared rapid gradient echo (ME‐MPRAGE) sequence with parameters as follows: TR = 2400 ms; TE1/TE2/TE3/TE4 = 1.57/3.29/5.01/6.73 ms; inversion time = 1200 ms; flip angle = 9°; spatial resolution = 1 mm isotropic.
For macaque brain PET/MR imaging analysis, we applied the INIA19 Template^[ [57] ^] and NeuroMaps Atlas in accordance with our prior work.^[ [58] ^] In brief, reconstructed PET images were registered to the INIA19 Primate Brain Atlas^[ [57] ^] with the following processing steps^[ [59] ^]: The high‐resolution T1‐weighted MR image, co‐registered with the PET image, was first affine‐registered to the INIA19 atlas. By using the same transformation, dynamic PET data was registered to the atlas. A spatial smoothing with a 6‐mm FWHM Gaussian kernel was applied to PET images. Twenty ROIs determined in the INIA19 atlas were used to derive regional TACs. […]

[1] = NAc, 10-min pretreatment of unlabeled CNY-01 (0.5 mg kg^−1)
[2] = Occg, 10-min pretreatment of unlabeled CNY-01 (0.5 mg kg^−1)
[3] = Ofc, 10-min pretreatment of unlabeled CNY-01 (0.5 mg kg^−1)
[4] = PCC, 10-min pretreatment of unlabeled CNY-01 (0.5 mg kg^−1)
[5] = Putamen, 10-min pretreatment of unlabeled CNY-01 (0.5 mg kg^−1)
[6] = Sensory, 10-min pretreatment of unlabeled CNY-01 (0.5 mg kg^−1)
[7] = Thalamus, 10-min pretreatment of unlabeled CNY-01 (0.5 mg kg^−1)
[8] = VTA, 10-min pretreatment of unlabeled CNY-01 (0.5 mg kg^−1)
[9] = WB, 10-min pretreatment of unlabeled CNY-01 (0.5 mg kg^−1)
[10] = WM, 10-min pretreatment of unlabeled CNY-01 (0.5 mg kg^−1)

SMILES: Cc1nc(-c2ccc(O[11CH3])cc2)nc(OCCCN2CCCCC2)c1Cl [[^11C]CNY-01]
- VT, One tissue compartment model [1TCM] (Motor, baseline): 6.97 mL cm^−3
- VT, Two tissue compartment model [2TCM] (Motor, baseline): 8.88 mL cm^−3
- VT, Logan graphical method [T* = 40 min] [1]: 33.22 ml/cm^3
- VT, Two tissue compartment model [2TCM] [1]: 26.92 ml/cm^3
- VT, Logan graphical method [T* = 40 min] (NAc, baseline): 13.11 mL cm^−3
- VT, One tissue compartment model [1TCM] (NAc, baseline): 9.85 mL cm^−3
- VT, Two tissue compartment model [2TCM] (NAc, baseline): 11.85 mL cm^−3
- nonspecific binding in blockage experiments (NHP): high nonspecific binding
- binding to target within the imaging timeframe (NHP, speculated from pharmacokinetic characteristics): predominantly irreversible
- VT, Logan graphical method [T* = 40 min] [2]: 12.96 ml/cm^3
- VT, Two tissue compartment model [2TCM] [2]: 11.84 ml/cm^3
- VT, Logan graphical method [T* = 40 min] (Occg, baseline): 7.07 mL cm^−3
- VT, One tissue compartment model [1TCM] (Occg, baseline): 5.24 mL cm^−3
- VT, Two tissue compartment model [2TCM] (Occg, baseline): 6.28 mL cm^−3
- VT, Logan graphical method [T* = 40 min] [3]: 20.65 ml/cm^3
- VT, Two tissue compartment model [2TCM] [3]: 16.68 ml/cm^3
- VT, Logan graphical method [T* = 40 min] (Ofc, baseline): 9.72 mL cm^−3
- VT, One tissue compartment model [1TCM] (Ofc, baseline): 7.31 mL cm^−3
- VT, Two tissue compartment model [2TCM] (Ofc, baseline): 9.24 mL cm^−3
- VT, Logan graphical method [T* = 40 min] [4]: 27.31 ml/cm^3
- VT, Two tissue compartment model [2TCM] [4]: 23.16 ml/cm^3
- VT, Logan graphical method [T* = 40 min] (PCC, baseline): 12.38 mL cm^−3
- VT, One tissue compartment model [1TCM] (PCC, baseline): 9.29 mL cm^−3
- VT, Two tissue compartment model [2TCM] (PCC, baseline): 14.68 mL cm^−3
- VT, Logan graphical method [T* = 40 min] [5]: 33.81 ml/cm^3
- VT, Two tissue compartment model [2TCM] [5]: 27.99 ml/cm^3
- VT, Logan graphical method [T* = 40 min] (Putamen, baseline): 15.02 mL cm^−3
- VT, One tissue compartment model [1TCM] (Putamen, baseline): 11.56 mL cm^−3
- VT, Two tissue compartment model [2TCM] (Putamen, baseline): 15.75 mL cm^−3
- VT, Logan graphical method [T* = 40 min] [6]: 19.24 ml/cm^3
- VT, Two tissue compartment model [2TCM] [6]: 16.21 ml/cm^3
- VT, Logan graphical method [T* = 40 min] (Sensory, baseline): 8.75 mL cm^−3
- VT, One tissue compartment model [1TCM] (Sensory, baseline): 6.73 mL cm^−3
- VT, Two tissue compartment model [2TCM] (Sensory, baseline): 9.33 mL cm^−3
- VT, Logan graphical method [T* = 40 min] [7]: 30.88 ml/cm^3
- VT, Two tissue compartment model [2TCM] [7]: 25.02 ml/cm^3
- VT, Logan graphical method [T* = 40 min] (Thalamus, baseline): 15.50 mL cm^−3
- VT, One tissue compartment model [1TCM] (Thalamus, baseline): 10.94 mL cm^−3
- VT, Two tissue compartment model [2TCM] (Thalamus, baseline): 19.46 mL cm^−3
- VT, Logan graphical method [T* = 40 min] [8]: 26.74 ml/cm^3
- VT, Two tissue compartment model [2TCM] [8]: 19.47 ml/cm^3
- VT, Logan graphical method [T* = 40 min] (VTA, baseline): 12.11 mL cm^−3
- VT, One tissue compartment model [1TCM] (VTA, baseline): 8.25 mL cm^−3
- VT, Two tissue compartment model [2TCM] (VTA, baseline): 11.16 mL cm^−3
- VT, Two tissue compartment model [2TCM] (WB (whole brain), baseline): 10.35 mL cm^−3
- VT, Logan graphical method [T* = 40 min] [9]: 20.75 ml/cm^3
- VT, Two tissue compartment model [2TCM] [9]: 16.75 ml/cm^3
- VT, Logan graphical method [T* = 40 min] (WB, baseline): 9.82 mL cm^−3
- VT, One tissue compartment model [1TCM] (WB, baseline): 7.44 mL cm^−3
- VT, Two tissue compartment model [2TCM] (WM (white matter), baseline): 15.00 mL cm^−3
- VT, Logan graphical method [T* = 40 min] [10]: 25.98 ml/cm^3
- VT, Two tissue compartment model [2TCM] [10]: 21.29 ml/cm^3
- VT, Logan graphical method [T* = 40 min] (WM, baseline): 11.98 mL cm^−3
- VT, One tissue compartment model [1TCM] (WM, baseline): 9.00 mL cm^−3
